Broadly, the Vdss is a proportionality between amount in the body and measured concentration, not a real space. Usually Cmax stands for the peak of the concentration-time curve. Broadly, the AUC(0-t) is exposure summed from dosing to a finite time, without extrapolation to infinity. Higher therefore signals high exposure. As usually defined, the clearance is the rate of elimination divided by the concentration. A lower clearance goes with inefficient removal. As a reminder, the half-life is the time needed for the level to fall by half in the phase considered. What is called bioavailability is the share of a dose that reaches the circulation, judged against a reference dose that is usually intravenous. Low values mean little systemic uptake, high ones much systemic uptake.

Here are results for 2 compounds from US12415799B2, “Indazole-fused cyclic compound” (Zhejiang Yangli Pharmaceutical Technology Co., Ltd., priority 2020, dated 2025).

Where two headings read alike, the source gives them in different places.

Series [1] concerns MCF-7 cells. As to the kind of experiment: MCF-7 cell proliferation inhibition experiment. The format is cell-based. The note with it: 6 days incubation, CellTiter-Glo, read-out: Anti-cell proliferation activity of MCF-7. On the procedure: (1) MCF-7 Cell Proliferation Inhibition Experiment:
EMEM culture medium was purchased from Wisent, and fetal bovine serum was purchased from Biosera, Promega CellTiter-Glo reagent. MCF-7 cell line was purchased from Cell Bank of Type Culture Collection of Chinese Academy of Sciences. Nivo5 multi-label analyzer (PerkinElmer).
MCF-7 cells were seeded in a white 384-well plate with 600 cells per well in every […] of the cell suspension. The cell plate was placed in a carbon dioxide incubator and cultured overnight.
The test compound was diluted to the 10th concentration with a multi-channel pipette, and the compound concentration was 1 mM, 400 μM, and 80 μM, and then diluted to the 10th concentration of 1 nM in turn, and a double-duplicate experiment was set-up. 47.5 μL of culture medium was added to the middle plate, then 2.5 μL of gradient dilution compound per well was transferred to the middle plate according to the corresponding position, and 5 μL of the mixture per well was mixed evenly and transferred to the cell plate. The cell plate was placed in a carbon dioxide incubator and cultured for 6 days.
After 6 days of co-incubation of the compound, the culture medium was removed by centrifugation, and 25 μL of Promega CellTiter-Glo reagent was added to each well of the cell plate, and incubated at room temperature for 10 minutes to stabilize the luminescence signal. PerkinElmer Nivo multi-marker analyzer reading was used. In the experiment, the reading of 2 μM positive reference compound H3B-6545(US20160347717A1) was used as a positive control to participate in data calculation.
The equation % Inhibition=((RFUCmpd−AVER(RFUNeg.ctrl))/((AVER(RFUPos.Ctrl)−AVER(RFUNeg.ctrl))×100% was used to convert the original data into inhibition rate, and the compound curve was fitted by log(inhibitor)vs. response-Variable slope of Graphpad Prism 5. The IC50 value was calculated by the software through the formula Y=Bottom+(Top−Bottom)/(1+10^((Log IC50−X)*HillSlope)).

A short description of series [2]: In vivo pharmacokinetic study in rats. Also on record: species or system male SD rats. An excerpt:
Experimental purposes: To test the drug concentration in plasma of rats at different times after intravenous and intragastric administration of the test compound by LC/MS/MS using male fasted SD rats as the experimental animals. To study the pharmacokinetics of the test compound in rats in vivo and evaluate their pharmacokinetic characteristics.
Experimental animals: 4 healthy male SD rats were divided into 2 groups according to the principle of similar body weight, with 2 mice in each group in IV group and 2 mice in each group in PO group. Animals were purchased from Beijing Vital River Laboratory Animal Co., Ltd.
IV group: Appropriate number of samples were weighed and prepared into 0.5 mg/mL solution respectively, and the mixture was stirred and ultrasonicated to reach a clear state, and the solvent was 15% HP-β-CD.
PO group: Appropriate amount of the solution prepared in IV group was diluted to 0.4 mg/mL with 15% HP-β-CD.
Administration: After fasting overnight, IV group was administered intravenously, and the dosage of the test compound was 1 mg/kg; PO group was administered intragastrically, and the dosage of the test compound was 2 mg/kg.
After the male rats in the intravenous injection group were given the test compound respectively, 200 μL of blood was collected from the jugular vein at 0.0833, 0.25, 0.5, 1, 2, 4, 8, and 24 hours, and placed in a commercialized anticoagulant tube added with EDTA-K2 in advance. After intragastric administration of the test compound, 200 μL of blood was collected from the jugular vein at 0.25, 0.5, 1, 2, 4, 8, 12 and 24 hours, respectively, and placed in a commercialized anticoagulant tube added with EDTA-K2 in advance. After centrifugation (3,200 g, 4° C., 10 minutes), the plasma was collected, transferred to a pre-cooled centrifuge tube, quickly frozen in dry ice, and stored in a refrigerator at −60° C. or lower, until LC-MS/MS analysis. Animals were allowed to eat 4 hours after administration. LC/MS/MS method was used to determine the content of the test compound in the plasma of rats after intravenous and intragastric administration. The linear range of the method was 2.00 to 2000 nM.

The test system of series [3] is MCF-7 breast cancer cell xenograft. In words: In vivo efficacy, MCF-7 breast cancer cell xenograft model. More on the design: species or system BALB/c nude mice. On the procedure:
The purpose of this experiment was to evaluate the antitumor effect of the compound of the present disclosure on MCF-7 breast cancer cell xenograft BALB/c nude mice (provided by the Experimental Animal Management Department of the Shanghai Institute of Family Planning Sciences, and the number of test animals in each experimental group was 5) model.
Mice were subcutaneously inoculated with 0.36 mg, 60-day slow-release estrogen tablets in the left shoulder three days before inoculation. When the cells were in the logarithmic growth phase, the cells were collected and counted, and the cell concentration was adjusted to 10×10^7 cells/mL, and an equal volume of Matrigel was added to mix evenly and then used for inoculation. Each mouse was subcutaneously inoculated with 0.2 mL of MCF-7 tumor cell suspension (10×10^6) on the right shoulder. On day 9 after tumor cell inoculation, the average tumor volume was 160 mm^3 and the body weight was 22.0 to 23.0 g, which was administered in groups and administered once a day. Tumor volume and weight measurements were performed twice a week after grouping, and tumor proliferation rate (T/C) and tumor growth inhibition rate (TGI) were calculated for the last tumor volume data on the day 21 after grouping, and the antitumor effect of compounds was evaluated by TGI (%) or relative tumor proliferation rate T/C (%). TGI (%), reflecting the tumor growth inhibition rate. TGI (%)=[(1-(average tumor volume at the end of administration of a certain treatment group-average tumor volume at the beginning of administration of this treatment group)/(average tumor volume at the end of treatment in the solvent control group-average tumor volume at the beginning of treatment in this solvent control group)]×100%, relative tumor proliferation rate T/C (%)=TRTV/CRTV×100% (TRTV: average RTV of the treatment group; CRTV: average RTV of the negative control group). The relative tumor volume (RTV) was calculated according to the results of tumor measurement, and the formula was RTV=Vt/V0, wherein V0 was the average tumor volume measured at the time of group administration (i.e., D0), and Vt was the tumor volume at a certain measurement, TRTV and CRTV were taken on the same day.

The mark [4] stands for this setting: male, SD, rat, plasma, iv, i.v. 1 mg/kg.
[5] abbreviates: male, SD, rat, plasma, po, p.o. 2 mg/kg.

`FCCCN1CC[C@H](Nc2cnc(C3=C(CC(F)(F)F)CCCc4c3ccc3[nH]nc(F)c43)cn2)C1` [Compound 11A]: in series [1], the IC50 is 0.17 nM. Also, the AUC0-last came out at 0.518 µM·h in series [2] (i.v. 1 mg/kg) and 0.601 µM·h in series [2] (p.o. 2 mg/kg). Besides, the Cl in series [2] (i.v. 1 mg/kg) worked out at 53.1 mL/min/kg. Moreover, the results for the T1/2 in series [2] (i.v. 1 mg/kg) and in series [2] (p.o. 2 mg/kg) were 3.19 h and 8.96 h, respectively. The compound also gave a volume of distribution (Vdss) in series [2] (i.v. 1 mg/kg) of 14.5 L/kg. Further, in series [2] (p.o. 2 mg/kg), the highest level (Cmax) was 66.9 nM. The compound further displayed a F % in series [2] (p.o. 2 mg/kg vs i.v. 1 mg/kg) of 58.1%. The Tumor volume was determined as 160 mm^3 in series [3] (Day 0, 5 mg/kg once a day); 184 mm^3 in series [3] (Day 4, 5 mg/kg once a day); 195 mm^3 in series [3] (Day 7, 5 mg/kg once a day); 200 mm^3 in series [3] (Day 11, 5 mg/kg once a day); 176 mm^3 in series [3] (Day 14, 5 mg/kg once a day); 126 mm^3 in series [3] (Day 18, 5 mg/kg once a day). Besides, the Tumor volume in series [3] (Day 21, 5 mg/kg once a day) amounted to 112 mm^3. The “T/C (%) (Day 21)” value in series [3] (Day 21, 5 mg/kg once a day) is 12.8%. In addition, in series [3] (Day 21, 5 mg/kg once a day), the “TGI (%) (Day 21)” value is 107%.

As to `FCCCN1CC(Nc2ccc(C3=C(CC(F)(F)F)CCCc4c3ccc3[nH]nc(F)c43)nc2)C1` [Compound 2], the IC50 in series [1] (Homo sapiens, MCF7, 144 h) is 0.42 nM. Moreover, the results for the AUC(0-t) in series [2] (setting [4]) and in series [2] (setting [5]) were 0.493 µM·h and 0.24 µM·h, respectively. This compound also came in with a clearance in series [2] (setting [4]) of 54.6 mL/min/kg. For the same compound, the figures for the half-life in series [2] (setting [4]) and in series [2] (setting [5]) were 3.62 h and 5.8 h, respectively. For the same compound, the Vd in series [2] (male, SD, rat, plasma, iv, i.v. 1 mg/kg, read-out: Vdss) stood at 15.9 L/kg. For the same compound, in series [2] (male, SD, rat, plasma, oral, p.o. 2 mg/kg vs i.v. 1 mg/kg), the bioavailability turned out to be 24.3%. The same compound yielded a Cmax in series [2] (setting [5]) of 39.3 nM. Further, the Tumor volume in series [3] (Day 0, 5 mg/kg once a day) was found to be 161 mm^3; in series [3] (Day 4, 5 mg/kg once a day) it was 169 mm^3; in series [3] (Day 7, 5 mg/kg once a day), 182 mm^3; in series [3] (Day 11, 5 mg/kg once a day) it was 186 mm^3; in series [3] (Day 14, 5 mg/kg once a day) it was 163 mm^3; in series [3] (Day 18, 5 mg/kg once a day) it was 133 mm^3. The compound further displayed a Tumor volume in series [3] (Day 21, 5 mg/kg once a day) of 118 mm^3. In series [3] (Day 21, 5 mg/kg once a day), the “T/C (%) (Day 21)” value was 12.3%. The “TGI (%) (Day 21)” value in series [3] (Day 21, 5 mg/kg once a day) came out at 106%.
